Reference: patent US9156796B2, “Benzoimidazole-carboxylic acid amide derivatives as APJ receptor modulators” (SANOFI, priority 2013, dated 2015)

What follows are compounds tested against T1, human apelin receptor (Homo sapiens, UniProt P35414) (assay: Determination of agonism on the human apelin receptor by a calcium fluorescence assay (FLIPR)). Conditions: HEK293 cells stably transfected with human apelin receptor and Giaq protein, Fluo-4 calcium fluorescence, read-out: EC50 (APJ agonism).
T1 construct: expressed in transfected cells
T1 sequence (P35414 1-380): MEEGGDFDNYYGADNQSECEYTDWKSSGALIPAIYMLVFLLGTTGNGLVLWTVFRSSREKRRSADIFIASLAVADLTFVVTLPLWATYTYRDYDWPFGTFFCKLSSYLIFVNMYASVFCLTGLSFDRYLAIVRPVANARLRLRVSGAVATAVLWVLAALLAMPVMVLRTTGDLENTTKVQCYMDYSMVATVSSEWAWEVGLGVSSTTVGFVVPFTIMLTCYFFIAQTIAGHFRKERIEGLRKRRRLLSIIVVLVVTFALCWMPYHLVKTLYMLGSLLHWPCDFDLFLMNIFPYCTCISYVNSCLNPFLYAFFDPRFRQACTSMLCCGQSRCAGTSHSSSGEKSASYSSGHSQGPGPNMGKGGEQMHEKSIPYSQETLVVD
Type: cell-based
Description: Determination of Agonism on the Human Apelin Receptor by a Calcium Fluorescence Assay (FLIPR)
The assay is based on the detection of intracellular calcium changes detected by the selective, calcium-chelating dye Fluo-4 (Molecular Probes). A large fluorescence intensity increase is observed upon calcium association with Fluo-4. The dye is delivered to the cell interior using an acetoxymethylester form of Fluo-4, where the intracellular esterase activity results in the charged species being released and trapped within the cytoplasm of the cell. […] By co-expressing the human apelin receptor and a promiscuous Giaq protein, agonism of the apelin receptor couples to phospholipase-C resulting in intracellular calcium mobilization.
The HEK293 cells were stably transfected with the human apelin receptor and the Giaq protein. Cells were selected and maintained in a log phase of growth at 37° and 5% CO2 in the Iscove's minimal essential medium, 10% fetal calf serum, 1× Penicillin-Streptomycin, 400 μg/mL G418. One day prior the assay, cells were passaged by accutase and plated at a density of 50,000 cells/well onto a 96-well plates with black border but clear bottom (Costar, cat#3904) in a final volume of 200 μl growth medium.
In order to load the cells the next day with the calcium-sensitive dye, growth medium was carefully replaced by dye solution (100 μl/well) containing Fluo-4 (4 μM) in basic measurement buffer (135 mM NaCl, 5 mM KCl, 1 mM magnesium sulphate, 5 mM glucose, 20 mM Hepes, 2.5 mM probenecid; adjusted to pH 7.4). Cells were incubated for 1 h at 37° C., and then washed 3× with buffer containing no dye. The washer was programmed to leave a remaining volume of 150 μl after the third wash in the plate.
During the dye-loading of the cells, a serial compound dilution was performed in a separate 96-well plate with overall 4× increased concentrations. Small aliquots of DMSO stock solutions of the compounds (10 mM in 100% DMSO were aliquoted into 150 μl buffer in the first rows of the 96-well plates, and then serially diluted by a factor of 1:3 transferring each time 30 μl to the next rows already containing 60 μl buffer. All compounds were tested in a least 7 concentrations, each condition was performed in triplicates. As comparator, we used freshly prepared apelin-13 solutions, for which also a concentration-response curve was determined at each measurement day. The compound plate was incubated for 10 min after the final dilutions steps at 37° C. before transferring the dye-loaded cell plate and the compound plate into a FLIPR Tetra reader (Molecular Devices). Measurement within this reader started by pipetting the agonist solution (50 μl) on the cell plate. Overall perform 60 reads were performed with an interval of 2 sec. The maximum of the fluorescence transient was used to calculate the agonistic response of the cells. In order to normalize this response, which may vary from plate to plate we set the maximum fluorescence achieved by 1 μM apelin-13 on this plate as 100%.
EC-50 values for apelin-13 and the apelin receptor compounds described in this patent were determined by standard algorithms using a specific software package.

`O=C(N[C@@H](CC1CCCCC1)C(=O)O)c1ccc2c(c1)nc(Cc1cccs1)n2C1CCCCC1C(F)(F)F` (stereo partly drawn) [Example 17, (S)-3-Cyclohexyl-2-{[2-thiophen-2-ylmethyl-1-(2-trifluoromethyl-cyclohexyl)-1H-benzoimidazole-5-carbonyl]-amino}-propionic acid] and `C[C@@H]1CCCC[C@H]1n1c(Cc2cccs2)nc2cc(C(=O)NC(CC3CCCCCC3)C(=O)O)ccc21` (stereo partly drawn) [Example 40, 3-Cycloheptyl-2-{[1-((1R,2R)-2-methyl-cyclohexyl)-2-thiophen-2-ylmethyl-1H-benzoimidazole-5-carbonyl]-amino}-propionic acid] are within 1.5-fold of each other in EC50: 935 nM for the first, 915 nM for the second.

Compared with `CCCC[C@H](NC(=O)c1ccc2c(c1)nc(Cc1cccs1)n2C(CC)CC)C(=O)O` [Example 18, (S)-2-{[1-(1-Ethyl-propyl)-2-thiophen-2-ylmethyl-1H-benzoimidazole-5-carbonyl]-amino}-hexanoic acid], `CCC(CC)n1c(Cc2cccs2)nc2cc(C(=O)NC(CCC(F)(F)F)C(=O)O)ccc21` (stereo not drawn) [Example 26, 2-{[1-(1-Ethyl-propyl)-2-thiophen-2-ylmethyl-1H-benzoimidazole-5-carbonyl]-amino}-5,5,5-trifluoro-pentanoic acid] is 35-fold higher in EC50: 150 nM for the first, 5300 nM for the second. The first is the more potent here.

First: CCC(CC)n1c(Cc2cccs2)nc2cc(C(=O)N[C@@H](Cc3ccc(F)cc3)C(=O)O)ccc21 [Example 19, (S)-2-{[1-(1-Ethyl-propyl)-2-thiophen-2-ylmethyl-1H-benzoimidazole-5-carbonyl]-amino}-3-(4-fluoro-phenyl)-propionic acid]
Second: CCC(CC)n1c(Cc2cccs2)nc2cc(C(=O)N[C@@H](Cc3ccc(Cl)cc3)C(=O)O)ccc21 [Example 20, (S)-3-(4-Chloro-phenyl)-2-{[1-(1-ethyl-propyl)-2-thiophen-2-ylmethyl-1H-benzoimidazole-5-carbonyl]-amino}-propionic acid]
The EC50 of the first is 2.7-fold higher: 5030 nM for the first, 1830 nM for the second.

First: CCC(CC)n1c(Cc2cccs2)nc2cc(C(=O)N[C@@H](CC3CC3)C(=O)O)ccc21 [Example 21, (S)-3-Cyclopropyl-2-{[1-(1-ethyl-propyl)-2-thiophen-2-ylmethyl-1H-benzoimidazole-5-carbonyl]-amino}-propionic acid]
Second: CCC(CC)n1c(Cc2cccs2)nc2cc(C(=O)N[C@@H](CC3CCC3)C(=O)O)ccc21 [Example 22, (S)-3-Cyclobutyl-2-{[1-(1-ethyl-propyl)-2-thiophen-2-ylmethyl-1H-benzoimidazole-5-carbonyl]-amino}-propionic acid]
The EC50 of the first is 5.5-fold higher: 443 nM for the first, 80 nM for the second. The second is the more potent here.

Going from `C[C@@H]1CCCC[C@H]1n1c(Cc2cccs2)nc2cc(C(=O)N[C@@H](CC3CCC3)C(=O)O)ccc21` [Example 23, (S)-3-Cyclobutyl-2-{[1-((1R,2R)-2-methyl-cyclohexyl)-2-thiophen-2-ylmethyl-1H-benzoimidazole-5-carbonyl]-amino}-propionic acid] to `C[C@@H]1CCCC[C@H]1n1c(Cc2cccs2)nc2cc(C(=O)NC(CC3CCC(C)(C)CC3)C(=O)O)ccc21` (stereo partly drawn) [Example 33, 3-(4,4-Dimethyl-cyclohexyl)-2-{[1-((1R,2R)-2-methyl-cyclohexyl)-2-thiophen-2-ylmethyl-1H-benzoimidazole-5-carbonyl]-amino}-propionic acid], the EC50 rises from 106 nM to 3210 nM (30-fold). The first is the more potent here.

First: CCC(CC)n1c(Cc2cccs2)nc2cc(C(=O)NC3(C(=O)O)CCCCC3)ccc21 [Example 24, 1-{[1-(1-Ethyl-propyl)-2-thiophen-2-ylmethyl-1H-benzoimidazole-5-carbonyl]-amino}-cyclohexanecarboxylic acid]
Second: CCC(CC)n1c(Cc2cccs2)nc2cc(C(=O)NC3(C(=O)O)CCC(C)CC3)ccc21 (stereo not drawn) [Example 34, 1-{[1-(1-Ethyl-propyl)-2-thiophen-2-ylmethyl-1H-benzoimidazole-5-carbonyl]-amino}-4-methyl-cyclohexanecarboxylic acid]
The EC50 of the first is 2.2-fold lower: 219 nM for the first, 489 nM for the second.

First: CCCC(C)(NC(=O)c1ccc2c(c1)nc(Cc1cccs1)n2C(CC)CC)C(=O)O (stereo not drawn) [Example 25, 2-{[1-(1-Ethyl-propyl)-2-thiophen-2-ylmethyl-1H-benzoimidazole-5-carbonyl]-amino}-2-methyl-pentanoic acid]
Second: CCC(CC)n1c(Cc2cccs2)nc2cc(C(=O)NC(CC3CCC(C)CC3)C(=O)O)ccc21 (stereo not drawn) [Example 36, 2-{[1-(1-Ethyl-propyl)-2-thiophen-2-ylmethyl-1H-benzoimidazole-5-carbonyl]-amino}-3-(4-methyl-cyclohexyl)-propionic acid]
The EC50 of the first is 3.8-fold higher: 4750 nM for the first, 1260 nM for the second. The second is the more potent here.

First: C[C@@H]1CCCC[C@H]1n1c(Cc2cccs2)nc2cc(C(=O)NC(CCC(F)(F)F)C(=O)O)ccc21 (stereo partly drawn) [Example 27, 5,5,5-Trifluoro-2-{[1-((1R,2R)-2-methyl-cyclohexyl)-2-thiophen-2-ylmethyl-1H-benzoimidazole-5-carbonyl]-amino}-pentanoic acid]
Second: C[C@@H]1CCCC[C@H]1n1c(Cc2cccs2)nc2cc(C(=O)NC3(C(=O)O)CCCCC3)ccc21 [Example 38, 1-{[1-((1R,2R)-2-Methyl-cyclohexyl)-2-thiophen-2-ylmethyl-1H-benzoimidazole-5-carbonyl]-amino}-cyclohexanecarboxylic acid]
The EC50 of the first is 16-fold higher: 1860 nM for the first, 115 nM for the second. The second is the more potent here.

Going from `CCC(CC)n1c(Cc2cccs2)nc2cc(C(=O)NC(CCc3ccccc3)C(=O)O)ccc21` (stereo not drawn) [Example 28, 2-{[1-(1-Ethyl-propyl)-2-thiophen-2-ylmethyl-1H-benzoimidazole-5-carbonyl]-amino}-4-phenyl-butyric acid] to `CCc1ccc(CC(NC(=O)c2ccc3c(c2)nc(Cc2cccs2)n3C(CC)CC)C(=O)O)cc1` (stereo not drawn) [Example 30, 3-(4-Ethyl-phenyl)-2-{[1-(1-ethyl-propyl)-2-thiophen-2-ylmethyl-1H-benzoimidazole-5-carbonyl]-amino}-propionic acid], the EC50 falls from 18500 nM to 2200 nM (8.4-fold).

Going from `CCC(CC)n1c(Cc2cccs2)nc2cc(C(=O)NC(CC3CCC(C)(C)CC3)C(=O)O)ccc21` (stereo not drawn) [Example 29, 3-(4,4-Dimethyl-cyclohexyl)-2-{[1-(1-ethyl-propyl)-2-thiophen-2-ylmethyl-1H-benzoimidazole-5-carbonyl]-amino}-propionic acid] to `CCC(CC)n1c(Cc2cccs2)nc2cc(C(=O)NC(CC3CCCCCC3)C(=O)O)ccc21` (stereo not drawn) [Example 39, 3-Cycloheptyl-2-{[1-(1-ethyl-propyl)-2-thiophen-2-ylmethyl-1H-benzoimidazole-5-carbonyl]-amino}-propionic acid], the EC50 falls from 5660 nM to 1140 nM (5-fold).

`CCC(CC)n1c(Cc2cccs2)nc2cc(C(=O)NC(Cc3ccc(C(F)(F)F)cc3)C(=O)O)ccc21` (stereo not drawn) [Example 31, 2-{[1-(1-Ethyl-propyl)-2-thiophen-2-ylmethyl-1H-benzoimidazole-5-carbonyl]-amino}-3-(4-trifluoromethyl-phenyl)-propionic acid] and `CCC(CC)n1c(Cc2cccs2)nc2cc(C(=O)N[C@@H](Cc3ccc(Cl)c(Cl)c3)C(=O)O)ccc21` [Example 32, (S)-3-(3,4-Dichloro-phenyl)-2-{[1-(1-ethyl-propyl)-2-thiophen-2-ylmethyl-1H-benzoimidazole-5-carbonyl]-amino}-propionic acid] are within 1.5-fold of each other in EC50: 4110 nM for the first, 4570 nM for the second.

Compared with `CC1CCC(NC(=O)c2ccc3c(c2)nc(Cc2cccs2)n3[C@@H]2CCCC[C@H]2C)(C(=O)O)CC1` (stereo partly drawn) [Example 35, 4-Methyl-1-{[1-((1R,2R)-2-methyl-cyclohexyl)-2-thiophen-2-ylmethyl-1H-benzoimidazole-5-carbonyl]-amino}-cyclohexanecarboxylic acid], `C[C@@H]1CCCC[C@H]1n1c(Cc2cncs2)nc2cc(C(=O)N[C@@H](CC3CCCCC3)C(=O)O)ccc21` [Example 37, (S)-3-Cyclohexyl-2-{[1-((1R,2R)-2-methyl-cyclohexyl)-2-thiazol-5-ylmethyl-1H-benzoimidazole-5-carbonyl]-amino}-propionic acid] is 3-fold higher in EC50: 291 nM for the first, 886 nM for the second. The first is the more potent here.
